Data taken from ChEMBL document CHEMBL4613277, “Improving the Potency of N-Aryl-2,5-dimethylpyrroles against Multidrug-Resistant and Intracellular Mycobacteria” (ACS Med Chem Lett, 2020).
Values after ≈ are worked out from the molar mass of the structure shown.

These compounds were tested on Mycobacterium tuberculosis (assay: Antimycobacterial activity against multidrug resistance Mycobacterium tuberculosis CCM10.1 assessed as reduction in bacterial growth incubated for 7 days by resazurin based assay). Conditions: CCM10.1, 168 h.
Assay type: functional

For `Cc1cc(CNC2CCCCC2)c(C)n1-c1ccc(C(C)C)cc1`, which MIC is on record?
The MIC was 0.00125 µg/mL (≈ 0.00385 µM).

Which MIC does the source give for `Cc1cc(CN[C@H]2C[C@@H]3CC[C@H]2C3)c(C)n1-c1ccc(Cl)cc1` here?
The MIC was 0.0025 µg/mL (≈ 0.0076 µM).

For `COc1ccc(-n2c(C)cc(CNC3CCCCC3)c2C)cc1`, which MIC is on record?
Its MIC is less than 0.000625 µg/mL.

With `Cc1cc(CNCC2CCCCC2)c(C)n1-c1ccc(Cl)cc1` as the compound, how does the MIC read?
The MIC was less than 0.000625 µg/mL.

The compounds below were run on Mycobacterium tuberculosis (assay: Antimycobacterial activity against multidrug resistance Mycobacterium tuberculosis CCM11.1 assessed as reduction in bacterial growth incubated for 7 days by resazurin based assay). Conditions: CCM11.1, 168 h.
Assay type: functional

For `Cc1cc(CNC2CCCCC2)c(C)n1-c1ccc(C(C)C)cc1`, which MIC is on record?
The MIC was 0.5 µg/mL (≈ 1.54 µM).

With `Cc1cc(CN[C@H]2C[C@@H]3CC[C@H]2C3)c(C)n1-c1ccc(Cl)cc1` as the compound, how does the MIC read?
The MIC was 1 µg/mL (≈ 3.04 µM).

With `COc1ccc(-n2c(C)cc(CNC3CCCCC3)c2C)cc1` as the compound, how does the MIC read?
The MIC was 0.5 µg/mL (≈ 1.6 µM).

With `Cc1cc(CNCC2CCCCC2)c(C)n1-c1ccc(Cl)cc1` as the compound, how does the MIC read?
Its MIC is 0.12 µg/mL (≈ 0.363 µM).
